Data from paper PMC11191317, “PNSC928, a plant-derived compound, specifically disrupts CtBP2-p300 interaction and reduces inflammation in mice with acute respiratory distress syndrome” (Biology Direct, 2024).

What was measured:
RAW264.7 cells = assay: RT-qPCR of CtBP2/p300/NF-κB target genes in LPS-treated RAW264.7 cells (PNSC928); type: cell-based, mouse; conditions: LPS + PNSC928 23.6 and 47.2 µM, 6 h
Description: For LPS treatment, different knockdown (KD) cell lines—Control^KD, CtBP2^KD, p300^KD, and p65^KD, all derived from MPAEpiC—were seeded in 12-well plates and cultured at 37 °C until reaching 80% confluence. The cells were then treated with 200 ng/mL of LPS for 6 h, washed three times with PBS, and subjected to the required experiments. For experiments involving inhibitors of CtBP2, p300, and NF-κB, as well as the compound PNSC928, MPAEpiC, RAW264.7, FL83B, TKPTS, and HL-1 cells were seeded in 12-well plates and cultured at 37 °C to reach 80% confluence. […]
RNA was isolated from both cultured cells and mouse lung tissues utilizing the TRIzol Reagent (Invitrogen; Shanghai, China; #15,596,018) in adherence to the manufacturer’s protocol. […] Gene expression quantification was carried out using the SYBR GreenER qPCR SuperMix Universal (Thermo Fisher; #1176202K) in combination with the specific primers delineated in Table S3. […]
Fig. 5 Determination of PNSC928 cytotoxicity and evaluation of PNSC928 effects on the expression levels of CtBP2/p300/NF-κB target genes. […] Cell viability was assessed every 24 h for 5 days. […] Subsequently, RNA isolation and RT-qPCR analysis were performed to quantify mRNA levels of various genes. […]

NF-κB signaling pathway = assay: Immunoblots of NF-κB signaling pathway molecules in LPS-treated MPAEpiC cells; type: cell-based, mouse; conditions: LPS 200 ng/mL + PNSC928 0, 23.6, and 47.2 µM, 6 h
Description: For LPS treatment, different knockdown (KD) cell lines—Control^KD, CtBP2^KD, p300^KD, and p65^KD, all derived from MPAEpiC—were seeded in 12-well plates and cultured at 37 °C until reaching 80% confluence. The cells were then treated with 200 ng/mL of LPS for 6 h, washed three times with PBS, and subjected to the required experiments. For experiments involving inhibitors of CtBP2, p300, and NF-κB, as well as the compound PNSC928, MPAEpiC, RAW264.7, FL83B, TKPTS, and HL-1 cells were seeded in 12-well plates and cultured at 37 °C to reach 80% confluence. Cells were then cotreated with 200 ng/mL LPS along with varying concentrations of the following chemicals: MTOB (0, 5, 10, or 20 mM), NSC95397 (0, 10, 20, or 40 µM), C646 (0, 3, 6, or 12 µM), A-485 (0, 5, 10, or 20 nM), TPCA1 (0, 150, 300, or 600 nM), BOT64 (0, 1, 2, or 4 µM), or PNSC928 (0, 11.8, 23.6, or 47.2 µM). After 6 h of treatment, cells were washed three times with PBS before proceeding with further experiments.
Cellular and mouse lung tissue lysates were prepared using the RIPA buffer (Thermo Fisher; #PI89900) supplemented with 1 × complete protease inhibitor cocktail (Thermo Fisher; #87,785). Following a 10-minute centrifugation at 13,000 g, proteins (50 µg) from the cleared lysate were resolved via 10% SDS-PAGE. These separated proteins were electroblotted onto PVDF membranes (Thermo Fisher; #88,585). […]

CC(=CCCC1=CCC(C2COC(=O)C2)OC1O)CCC1=C(C)CCCC1(C)C (stereo not drawn) [PNSC928]
Expression levels of CDH1, CDKN1A, CDKN2A, CHRD, PAX6, BAX, NOD2, CCL2, CXCL10, CXCL12, MMP1, STAT1, MIP2, CCR5, GM-CSF, VEGF, COX2, and iNOS (RAW264.7 cells): did not alter the expression levels
LPS-induced IL-1B, IL-6, IL-15, IL-18, TNFA, and IFNG expressions (RAW264.7 cells): dose-dependent reversal
Effect on LPS-induced pIKKα, pIκBα, IκBα levels and nuclear translocation of p65 and p50 (NF-κB signaling pathway): did not alter the effects of LPS
